Reference: patent publication US10765764B2, “Probes for imaging huntingtin protein” (CHDI Foundation, Inc., priority 2015, dated 2020)
Blank lines part the entries; values can stand above or below the compound they belong to.

Assays:
[1] = test system: zQ175 knock-in mice (cortex, hippocampus, striatum, cerebellum); assay: In vivo PET imaging in a knock-in model of Huntington's disease; parameters: species or system mouse; settings: for % SUV: Mean ± SD
Protocol: ^11C-labeled Compound 1 of Method 1 was evaluated for its ability to penetrate the central nervous system of mice following systemic administration, and its binding to the cerebellum, striatum, hippocampus, and cortex was quantitated. Three groups of animals were compared: wild-type, and mice that were heterozygous or homozygous for the zQ175 knock-in allele. (Menalled L. B. et al. Comprehensive behavioral and molecular characterization of a new knock-in mouse model of Huntington's disease: zQ175. PloS One 2012, 7, e49838). Forty-eight nine months old animals (16 WT, 16 heterozygous and 16 homozygous zQ175) were obtained from The Jackson Laboratory, USA. The animals were housed at the animal department of Karolinska University Hospital in a temperature (±21° C.) and humidity (±40%) controlled environment on a 12 hour light/dark cycle (lights on 7:00 AM) with access to food and water ad libitum. Animals were allowed at least one week to habituate to the animal department before the start of the imaging sessions. All experiments were conducted during the light phase of the cycle.
Animals were anesthetized with inhalation of isoflurane (4-5% isoflurane in oxygen). After induction of anesthesia, the isoflurane concentration was lowered to 1.5-2% in 50/50 air/oxygen and the animals were positioned in the scanner in a designated mouse bed. A cannula was inserted in the tail vein through which the radioligand was administered. A 63-minute dynamic PET scan was initiated immediately upon intravenous injection of the radioligand. Upon completion of the imaging sessions, each animal was returned to its cage.
The acquired list mode data, was reconstructed into 25 timeframes (63 minute scan=4×10 s, 4×20 s, 4×60 s, 7×180 s, 6×360 s). The image reconstruction was made with a fully 3-dimensional maximum-likelihood expectation maximization algorithm (MLEM) with 20 iterations, without scatter and attenuation correction. The reconstructed dynamic PET images were co-registered to an inbuilt mouse MRI template available in PMOD, which also incorporates volumes of interest (VOI's) sets (PMOD Technologies Ltd., Zurich, Switzerland). With the help of these VOI sets, decay corrected time activity curves (TAC) were generated. The regional brain uptake values were expressed as percent standard uptake value (% SUV), which normalizes for injected radioactivity and body weight. In addition, the area under the curve (AUC) was calculated. The selected regions of interest (ROI) were: cortex, hippocampus, striatum and cerebellum.
The average % SUV and AUC values for the ^11C-labeled Compound 1 of Method 1 in the four brain regions, for the three groups of mice, are shown in Table 23. […] FIG. 3 presents the AUC values for the three groups of animals in the four regions of the brain.

[2] = test system: recombinant tau and amyloid β1-42 (Aβ1-42) aggregates; settings: recombinant tau and Aβ1-42 aggregates; cited from earlier work
[3] = test system: NFT in sections of AD brain tissue; settings: in vitro autoradiography and fluorescent staining; cited from earlier work
[4] = target: T1, Aβ aggregates (Homo sapiens, UniProt P05067); assay: Autoradiography binding to Aβ aggregates in APP/PS1 mouse brain sections; settings: 1 nM radioligand, 12-month old heterozygous APP/PS1 mouse brain, compared with wild-type littermate
T1 construct: from tissue; host or cells: brain sections of 12 month old heterozygous APP/PS1 mice
T1 sequence (P05067 672-713 limits assumed): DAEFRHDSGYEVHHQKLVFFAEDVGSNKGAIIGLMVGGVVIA
Source text: Generation of tritiated compound 1, Method 1, for autoradiography studies was achieved by treating phenolic Compound 2 of Method 2 with tritiated methyl nosylate and a suitable base in N,N-dimethylformamide Purification by HPLC gave the tritiated compound in high radiochemical purity.
Brains were extracted from 12 month old heterozygous APP/PS1 animals (J. Neurochemistry 2009, 108, 1177-1186) and quickly frozen on dry ice in small weigh boats, wrapped with tin foil and stored in zip-lock bags at −80° C. for sectioning. Using a Leica CM3050S cryostat, 20 μm thick sections were generated representing the hippocampus (Bregma −1.34/−3.80) and the cortex/striatum (Bregma 1.54/−0.94). […]
10-[^3H]-methoxy-N-(pyridin-3-yl)-7-thia-2,5-diazatricyclo[6.4.0.0^2,6]dodeca-1(12),3,5,8,10-pentaene-4-carboxamide binding was determined in brain sections of a 12 month old APP/PS1 mouse and a WT littermate. […] Non-specific binding was determined for each radioligand in the presence of 1 μM of respective, cold ligand equivalent. […]
Quantification and Analysis: Signal intensity (cpm/mm^2) was measured for each brain section using Beta Vision+software. Specific (displaceable) binding, expressed in cpm/mm^2, was defined by the difference between total and non-specific binding and calculated as follows: (Total non-specific)/Total×100%. […]

[5] = target: T2, Q46 protein aggregates (Homo sapiens, UniProt P42858); assay: Q46 Radioligand Binding Assay (RBA), displacement of [^3H3]MK-3328; settings: 10 nM [^3H3]MK-3328, 5 μM Q46 protein aggregates
T2 construct: fused on or other part: An N-terminal GST tag, cleaved off with thrombin before the assay to trigger aggregation
T2 sequence (P42858 with tags, fused parts or gaps with the stated changes, form open): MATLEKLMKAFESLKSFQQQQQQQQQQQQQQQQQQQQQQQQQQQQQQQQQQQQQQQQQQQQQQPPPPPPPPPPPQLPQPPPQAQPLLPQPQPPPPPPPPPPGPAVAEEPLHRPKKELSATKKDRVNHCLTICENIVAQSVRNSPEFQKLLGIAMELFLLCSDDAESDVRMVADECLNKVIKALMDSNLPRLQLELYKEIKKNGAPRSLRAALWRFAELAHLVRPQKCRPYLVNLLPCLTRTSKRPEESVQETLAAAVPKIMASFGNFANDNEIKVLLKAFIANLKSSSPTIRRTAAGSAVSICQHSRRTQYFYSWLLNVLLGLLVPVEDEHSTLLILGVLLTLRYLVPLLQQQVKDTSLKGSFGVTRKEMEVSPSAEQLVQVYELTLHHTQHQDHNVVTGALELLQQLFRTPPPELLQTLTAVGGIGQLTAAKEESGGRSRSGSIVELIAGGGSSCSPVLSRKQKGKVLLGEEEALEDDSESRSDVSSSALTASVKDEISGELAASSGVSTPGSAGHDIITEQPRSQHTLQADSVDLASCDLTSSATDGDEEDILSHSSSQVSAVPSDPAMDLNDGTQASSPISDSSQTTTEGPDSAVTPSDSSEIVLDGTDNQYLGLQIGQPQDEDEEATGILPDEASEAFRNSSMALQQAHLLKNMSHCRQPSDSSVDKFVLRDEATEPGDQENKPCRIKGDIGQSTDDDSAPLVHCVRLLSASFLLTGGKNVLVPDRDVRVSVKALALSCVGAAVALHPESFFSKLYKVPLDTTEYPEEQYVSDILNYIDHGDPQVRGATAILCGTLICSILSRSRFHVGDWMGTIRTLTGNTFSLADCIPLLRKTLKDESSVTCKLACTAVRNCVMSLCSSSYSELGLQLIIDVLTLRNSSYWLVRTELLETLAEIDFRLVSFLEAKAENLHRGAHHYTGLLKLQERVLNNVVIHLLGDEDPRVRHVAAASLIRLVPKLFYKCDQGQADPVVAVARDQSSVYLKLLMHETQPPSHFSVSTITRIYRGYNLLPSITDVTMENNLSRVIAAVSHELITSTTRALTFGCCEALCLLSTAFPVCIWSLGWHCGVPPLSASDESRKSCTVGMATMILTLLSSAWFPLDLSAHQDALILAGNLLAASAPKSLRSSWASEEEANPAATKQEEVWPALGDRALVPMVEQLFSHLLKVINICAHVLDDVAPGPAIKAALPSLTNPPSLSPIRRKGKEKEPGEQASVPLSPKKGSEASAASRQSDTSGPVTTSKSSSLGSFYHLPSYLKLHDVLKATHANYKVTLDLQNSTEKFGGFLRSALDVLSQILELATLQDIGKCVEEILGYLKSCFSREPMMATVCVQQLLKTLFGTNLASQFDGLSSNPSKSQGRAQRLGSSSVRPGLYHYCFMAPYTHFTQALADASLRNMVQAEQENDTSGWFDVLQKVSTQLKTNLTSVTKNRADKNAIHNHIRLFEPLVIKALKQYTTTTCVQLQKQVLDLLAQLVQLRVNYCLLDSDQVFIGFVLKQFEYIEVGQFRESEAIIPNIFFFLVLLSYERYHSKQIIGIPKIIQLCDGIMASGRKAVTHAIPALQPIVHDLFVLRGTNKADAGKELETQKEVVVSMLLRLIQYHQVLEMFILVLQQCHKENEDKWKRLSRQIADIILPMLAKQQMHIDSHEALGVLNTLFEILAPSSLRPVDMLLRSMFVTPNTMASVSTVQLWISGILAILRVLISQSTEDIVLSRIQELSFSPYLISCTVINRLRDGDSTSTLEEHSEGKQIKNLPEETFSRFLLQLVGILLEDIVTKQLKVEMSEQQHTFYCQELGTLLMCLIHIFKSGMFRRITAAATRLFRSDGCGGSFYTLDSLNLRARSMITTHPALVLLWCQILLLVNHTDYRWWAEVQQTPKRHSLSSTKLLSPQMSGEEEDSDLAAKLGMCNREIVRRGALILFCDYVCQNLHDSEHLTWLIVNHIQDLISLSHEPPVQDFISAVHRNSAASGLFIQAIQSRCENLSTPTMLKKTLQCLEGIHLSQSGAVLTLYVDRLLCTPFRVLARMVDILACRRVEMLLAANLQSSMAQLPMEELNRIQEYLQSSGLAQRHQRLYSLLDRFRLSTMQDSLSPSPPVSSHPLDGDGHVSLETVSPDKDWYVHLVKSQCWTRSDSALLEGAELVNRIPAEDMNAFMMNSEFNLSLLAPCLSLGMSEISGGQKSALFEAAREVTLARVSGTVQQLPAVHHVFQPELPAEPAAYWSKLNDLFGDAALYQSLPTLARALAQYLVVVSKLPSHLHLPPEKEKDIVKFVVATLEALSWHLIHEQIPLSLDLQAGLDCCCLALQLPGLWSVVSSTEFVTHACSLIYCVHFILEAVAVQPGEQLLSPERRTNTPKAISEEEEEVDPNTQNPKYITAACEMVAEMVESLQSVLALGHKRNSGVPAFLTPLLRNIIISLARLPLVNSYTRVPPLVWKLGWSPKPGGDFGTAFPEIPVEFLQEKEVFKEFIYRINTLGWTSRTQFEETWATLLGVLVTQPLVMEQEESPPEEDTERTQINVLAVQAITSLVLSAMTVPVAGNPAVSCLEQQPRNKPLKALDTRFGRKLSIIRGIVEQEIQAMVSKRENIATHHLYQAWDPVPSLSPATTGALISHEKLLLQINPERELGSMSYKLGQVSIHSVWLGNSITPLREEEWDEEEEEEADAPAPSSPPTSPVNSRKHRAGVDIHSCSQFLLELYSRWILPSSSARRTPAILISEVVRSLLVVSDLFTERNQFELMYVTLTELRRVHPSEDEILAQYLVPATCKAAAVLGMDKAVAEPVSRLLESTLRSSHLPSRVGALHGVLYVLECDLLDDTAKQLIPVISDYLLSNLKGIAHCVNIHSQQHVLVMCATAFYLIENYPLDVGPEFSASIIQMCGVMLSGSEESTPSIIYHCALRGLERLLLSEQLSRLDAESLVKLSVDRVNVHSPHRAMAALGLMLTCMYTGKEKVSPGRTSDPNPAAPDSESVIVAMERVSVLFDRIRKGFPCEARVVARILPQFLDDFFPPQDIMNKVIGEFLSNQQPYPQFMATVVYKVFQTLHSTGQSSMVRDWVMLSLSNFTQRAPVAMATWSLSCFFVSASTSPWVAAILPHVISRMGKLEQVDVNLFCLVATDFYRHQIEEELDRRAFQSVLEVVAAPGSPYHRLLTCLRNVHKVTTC
Protocol: For radioligand binding assays (RBA) GST-Q46 protein was generated based on a previous publication (Scherzinger et al. Cell, Vol. 90, 549-558, Aug. 8, 1997). For experiments 33 μM GST-Q46 was incubated with 150 μg/mL thrombin in assay buffer (150 mM NaCl, 50 mM Tris pH 8.0) and 2 mM CaCl2 for 16 hours at 37° C. Aggregated Q46 was pelleted by centrifugation for 5 minutes at 13,000 rpm in a bench top centrifuge and re-dissolved in the same volume of assay buffer. Test compounds were prepared by titration in DMSO at 11 concentrations from 33 μM to 1 nM. For the RBA, Q46 protein aggregates and test compounds were pre-incubated in assay buffer for 20 minutes at room temperature, in 140 μL/well in a 96-well plate (pp, round bottom). Then, ligand was added in 10 μL/well and incubated for 60 minutes at 37° C. Final assay concentrations were 1 μM to 30 pM test compound, 5 μM Q46 protein (equivalent monomer concentration) and 10 nM ligand [^3H3]MK-3328 (Harrision et al., ACS Med. Chem. Lett., 2 (2011), pp 498-502). Samples were transferred onto GF/B filter plates and washed 2× with 200 μL PBS using a Filtermate Harvester. After drying filter plates for 1 hour at 37° C., the back of the plates was sealed with foil and 30 μl/well scintillation fluid (Packard MicroScint 40) was added, incubated for incubated for 15 minutes in the dark and counted in a TopCount reader. For analysis, replicate data from independent assay plates were normalized towards 0% and 100% inhibition using control wells of vehicle (0% inhibition) and 3 μM unlabelled MK-3328 (100% inhibition). IC50 values were determined with a sigmoidal inhibition model with four variables (top, bottom, slope, IC50) in a global fit using the normalized replicate data.

[6] = test system: mHTT aggregates; assay: Autoradiography of mHTT aggregates in R6/2 mouse brain; type: binding; settings: 0.5 nM, 10 week old R6/2 mouse brain, compared with wild-type littermate

SMILES: CN(C)c1ccc(/C=C/c2nc3ccc(I)cc3[nH]2)cc1 [SBIM-3, 4-[(E)-2-(6-iodo-1H-benzimidazol-2-yl)ethenyl]-N,N-dimethylaniline]
ratio of Kd values (affinity for tau aggregates vs Aβ1-42 aggregates) [2]: 2.73
binding to NFT in sections of AD brain tissue [3]: bound NFT

SMILES: COc1ccc2c(c1)sc1nc(C(=O)Nc3ccc(=O)n(C)n3)cn12 [10-methoxy-N-(1-methyl-6-oxo-1,6-dihydropyridazin-3-yl)-7-thia-2,5-diazatricyclo[6.4.0.0^2,6]dodeca-1(12),3,5,8,10-pentaene-4-carboxamide]
IC50 [5]: < 0.1 µM
visibility of mHTT aggregates in brain sections [6]: mHTT aggregates are visible

SMILES: O=C(Nc1cccnc1)c1cn2c(n1)sc1cc(OCCF)ccc12 [10-(2-fluoroethoxy)-N-(pyridin-3-yl)-7-thia-2,5-diazatricyclo[6.4.0.0^2,6]dodeca-1(8),3,5,9,11-pentaene-4-carboxamide]
IC50 [5]: < 0.1 µM

SMILES: COc1ccc2c(n1)sc1nc(C(=O)Nc3cccnc3)cn12 [10-methoxy-N-(pyridin-3-yl)-7-thia-2,5,9-triazatricyclo[6.4.0.0^2,6]dodeca-1(12),3,5,8,10-pentaene-4-carboxamide]
IC50 [5]: < 0.1 µM

SMILES: COc1ccc2c(c1)nc1nc(C(=O)Nc3ccncc3C#N)ccn12 [N-(3-cyanopyridin-4-yl)-5-methoxy-1,8,10-triazatricyclo[7.4.0.0^2,7]trideca-2(7),3,5,8,10,12-hexaene-11-carboxamide]
IC50 [5]: < 0.1 µM

Second part, led by results:

% SUV ([1]; Cerebellum, WT mice (n = 7)): 74.1 ± 7.1 % SUV
% SUV ([1]; Cerebellum, het zQ175 mice (n = 6)): 80.5 ± 6.5 % SUV
% SUV ([1]; Cerebellum, hom zQ175 mice (n = 8)): 92.3 ± 11.3 % SUV
% SUV ([1]; Cortex, WT mice (n = 7)): 67.1 ± 5.7 % SUV
% SUV ([1]; Cortex, het zQ175 mice (n = 6)): 73.4 ± 5.1 % SUV
% SUV ([1]; Cortex, hom zQ175 mice (n = 8)): 93.1 ± 9.6 % SUV
% SUV ([1]; Hippocampus, WT mice (n = 7)): 73.3 ± 6.5 % SUV
% SUV ([1]; Hippocampus, het zQ175 mice (n = 6)): 82.0 ± 6.3 % SUV
% SUV ([1]; Hippocampus, hom zQ175 mice (n = 8)): 107.1 ± 10.8 % SUV
% SUV ([1]; Striatum, WT mice (n = 7)): 71.9 ± 6.7 % SUV
% SUV ([1]; Striatum, het zQ175 mice (n = 6)): 82.7 ± 7.0 % SUV
% SUV ([1]; Striatum, hom zQ175 mice (n = 8)): 107.6 ± 9.6 % SUV
SMILES: [11CH3]Oc1ccc2c(c1)sc1nc(C(=O)Nc3cccnc3)cn12 [^11C-labeled Compound 1 of Method 1, 10-[^11C]-methoxy-N-(pyridin-3-yl)-7-thia-2,5-diazatricyclo[6.4.0.0^2,6]dodeca-1(12),3,5,8,10-pentaene-4-carboxamide]
binding of the radioligand relative to wild type ([1]; all four brain regions, mice homozygous for the zQ175 allele): Increased binding of the radioligand, relative to wild type

visibility of Aβ aggregates in brain sections [4]: Aβ aggregates are visible
SMILES: [3H]C([3H])([3H])Oc1ccc2c(c1)sc1nc(C(=O)Nc3cccnc3)cn12 [10-[^3H]-methoxy-N-(pyridin-3-yl)-7-thia-2,5-diazatricyclo[6.4.0.0^2,6]dodeca-1(12),3,5,8,10-pentaene-4-carboxamide]
